These results are taken from patent publication US20190358182A1, “NOVEL MECHANISM FOR DECREASING OPIOID REWARD” (THE TRUSTEES OF INDIANA UNIVERSITY, priority 2018, published 2019).

Series [1] relates to rats. Conditions: for conditioned place preference to morphine on coadministration: inhibitor 10 mg/kg i.p. × 4 pairings with morphine 6 mg/kg i.p., FIG. 4E, 4F.
Series [2] concerns rats. Briefly: Morphine self-administration, FR1 schedule (preliminary study). It counts as in vivo, rat. The settings on record: morphine 0.1 mg/kg/injection.
The test system of series [3] is rats. Put plainly: Single trial conditioned place preference (CPP). It counts as in vivo, rat. Conditions: for single trial CPP to the inhibitor alone: acute treatment alone, data not shown; for single trial morphine-induced CPP on acute co-treatment: rats, FIG. 3B, 3C. An excerpt: FIGS. 3A-3C present data from a conditioned place preference study where one chamber was paired with the drug treatment and the other chamber was paired with the vehicle. Animals are subsequently tested in the drug free state to determine if the drug pairing produced reward or aversion in the animals.

Series [4] addresses T1, PSD95-nNOS (Homo sapiens, UniProt P29475+P78352). Conditions: as described for the control compound; cited from earlier work.
Series [5] can be described thus: Rota-rod test. The format is in vivo. The settings on record: 10-30 mg/kg i.p., FIG. 5B. A general note: Falling from the rotarod earlier than controls is read as motor impairment.
Series [6] can be described thus: Novel object recognition test. The settings on record: data not shown. The format is in vivo.
The subject of series [7] is rats. Briefly: Radial arm maze task for source and spatial working memory. Conditions: MK801 0.1 or 0.2 mg/kg i.p., IC87201 and ZL006 10 mg/kg i.p., 30 min after injection. As to the method:
Rats were trained in a radial arm maze task that tests both source and spatial working memory for these experiments. Data are average of three trials 30 min after drug injection (n=6/group).
Memory impairment can confound CPP studies that depend on learning. Experiments were conducted to determine whether PSD95-nNOS inhibitors impair normal memory functions or show favorable side effect profiles compared to NMDAR antagonist MK801. We used a highly sensitive “source memory” task developed by applicants for use in rats to better mimic types of memory that are actually impaired in humans.

Series [8] concerns the target PSD95-ERB4 (Homo sapiens, UniProt P78352). Briefly: Alphascreen, interaction of PSD95 with unrelated proteins. It counts as binding. The settings on record: FIG. 2. A general note: Bead proximity is the source of the signal in Alpha formats.
Series [9] concerns NMDA-induced NO formation. Put plainly: NMDA-induced NO formation / cGMP levels in primary hippocampal cultures. It counts as cell-based. Conditions: for NMDA-induced NO formation: data not shown, Smith et al. (2016); for NMDA-stimulated cGMP levels: primary hippocampal cultures, published in Smith et al. (2016).
The conditions of series [10]: cited from earlier work; for pain hypersensitivity / pathological pain: chronic pain models; for nociceptive responding / basal nociceptive thresholds without injury: naïve animals, absence of injury.
In series [11] the target is T1, PSD95-nNOS. Briefly: Alphascreen in vitro assay of PSD95-nNOS binding (purified proteins). Conditions: purified nNOS and PSD95 proteins, FIG. 2. An excerpt:
Mechanism: We developed an in vitro assay using Alphascreen to establish whether IC87201 and ZL006 directly disrupt interactions between purified nNOS and PSD95 proteins. […] A later group identified ZL006.

Series [12] is described as follows: Morris Water maze. It counts as in vivo. The settings on record: FIG. 5A.
Series [13] relates to rats. Conditions: cited from earlier work.
The target of series [14] is T2, nNOS with PSD95 (Mus musculus, UniProt Q62108+Q9Z0J4).
T2 construct: host or cells: ischemic cortex of wild-type mice
Conditions: WT but not nNOS −/− mice; cited from earlier work.

For series [15], the system named is mice. Conditions: wild type (WT) but not nNOS −/− mice; cited from earlier work.
The subject of series [16] is DA efflux in NAc shell. Put plainly: Fast-scan cyclic voltammetry of electrically evoked DA in NAc shell. The format is in vivo, rat. The source says:
Design and Rationale: Although FSCV can record spontaneously occurring DA transients in behaving animals, the anesthetized preparation is preferred because it provides reliable and reproducible DA signals independent of behavioral activity. In fact, the fluctuating and intermittent nature of behavior-related DA signals (e.g.,) could confound efforts to establish a first-ever characterization of PSD95-nNOS disrupters on DA dynamics. […] Rats are fixed in a stereotaxic frame, and a carbon-fiber working electrode (6 μm diameter) is lowered into NAc shell. A bipolar stimulating electrode is lowered over the ipsilateral MFB to evoke endogenous DA release. An Ag/AgCl reference is placed on the contralateral cortex. […] Voltammograms are obtained every 100 ms at a scan rate of 400 v/s.
The basic design is to collect baseline DA signals (30 min) evoked by MFB stimulation, administer (ip) test drug(s) or vehicle, and collect post-administration evoked DA signals. […] The effects of each compound (injected i.p.) will be monitored for at least 60 min and tested in separate groups of rats (n=10/group). […] To evoke DA release, we apply a biphasic current (60 Hz, 0.4 s, 300 μA) to the stimulating electrode.
Stimulations at 60 Hz are applied every 2 min to ensure renewal of the readily releasable DA pool. Evoked signals are resolved into respective rates for release and uptake, and pre- and postdrug data are compared. Upon completion of recording, the working electrode is used for postcalibration testing to estimate the in vivo concentration of DA. The analysis used to assess changes in DA release and uptake involves a modification of Michaelis-Menten kinetics. We use mathematical modeling that describes the rate of change in evoked DA concentration as the counteracting balance of release and reuptake: d[DA]/dt=[DA]p*f−Vmax/(Km/[DA]+1), where [DA] is the extracellular DA concentration, [DA]p refers to the extracellular DA concentration evoked per stimulus pulse, Vmax represents the Michaelis-Menten term for maximal uptake rate, Km is the Michaelis-Menten term inversely proportional to transporter affinity, and f is the frequency of the stimulation train. Thus, both Km and Vmax are Michaelis-Menten rate constants that describe uptake (see FIG. 7B). [DA]p describes the rate of stimulated release. Km is held constant at a 0.2 μM, the reported value in striatum for anesthetized rodents. [DA]p and Vmax are determined by the above equation in combination with curve-fitting software that incorporates a simplex minimization algorithm.

Structures are written as SMILES. “Also recorded” adds a separate entry of the source.

T1 sequence (P78352 whole entry): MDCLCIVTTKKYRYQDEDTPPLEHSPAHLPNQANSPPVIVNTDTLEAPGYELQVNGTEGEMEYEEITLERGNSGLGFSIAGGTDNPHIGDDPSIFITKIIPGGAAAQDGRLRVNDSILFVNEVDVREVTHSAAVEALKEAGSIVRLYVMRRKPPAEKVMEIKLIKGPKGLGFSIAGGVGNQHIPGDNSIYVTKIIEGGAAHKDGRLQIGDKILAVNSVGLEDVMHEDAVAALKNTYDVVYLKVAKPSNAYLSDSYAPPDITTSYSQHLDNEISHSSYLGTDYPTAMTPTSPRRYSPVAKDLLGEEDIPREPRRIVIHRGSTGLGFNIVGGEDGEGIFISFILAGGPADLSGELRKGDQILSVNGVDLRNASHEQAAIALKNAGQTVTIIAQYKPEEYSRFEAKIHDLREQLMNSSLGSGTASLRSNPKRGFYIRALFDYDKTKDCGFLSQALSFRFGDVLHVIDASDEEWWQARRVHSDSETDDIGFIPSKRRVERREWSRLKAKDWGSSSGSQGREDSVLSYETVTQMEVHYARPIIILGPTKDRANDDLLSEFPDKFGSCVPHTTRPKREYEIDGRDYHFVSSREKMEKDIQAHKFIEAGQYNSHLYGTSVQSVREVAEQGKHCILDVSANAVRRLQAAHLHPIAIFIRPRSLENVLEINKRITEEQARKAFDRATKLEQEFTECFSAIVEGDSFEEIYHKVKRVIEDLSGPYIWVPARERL
T1 sequence (P29475 whole entry): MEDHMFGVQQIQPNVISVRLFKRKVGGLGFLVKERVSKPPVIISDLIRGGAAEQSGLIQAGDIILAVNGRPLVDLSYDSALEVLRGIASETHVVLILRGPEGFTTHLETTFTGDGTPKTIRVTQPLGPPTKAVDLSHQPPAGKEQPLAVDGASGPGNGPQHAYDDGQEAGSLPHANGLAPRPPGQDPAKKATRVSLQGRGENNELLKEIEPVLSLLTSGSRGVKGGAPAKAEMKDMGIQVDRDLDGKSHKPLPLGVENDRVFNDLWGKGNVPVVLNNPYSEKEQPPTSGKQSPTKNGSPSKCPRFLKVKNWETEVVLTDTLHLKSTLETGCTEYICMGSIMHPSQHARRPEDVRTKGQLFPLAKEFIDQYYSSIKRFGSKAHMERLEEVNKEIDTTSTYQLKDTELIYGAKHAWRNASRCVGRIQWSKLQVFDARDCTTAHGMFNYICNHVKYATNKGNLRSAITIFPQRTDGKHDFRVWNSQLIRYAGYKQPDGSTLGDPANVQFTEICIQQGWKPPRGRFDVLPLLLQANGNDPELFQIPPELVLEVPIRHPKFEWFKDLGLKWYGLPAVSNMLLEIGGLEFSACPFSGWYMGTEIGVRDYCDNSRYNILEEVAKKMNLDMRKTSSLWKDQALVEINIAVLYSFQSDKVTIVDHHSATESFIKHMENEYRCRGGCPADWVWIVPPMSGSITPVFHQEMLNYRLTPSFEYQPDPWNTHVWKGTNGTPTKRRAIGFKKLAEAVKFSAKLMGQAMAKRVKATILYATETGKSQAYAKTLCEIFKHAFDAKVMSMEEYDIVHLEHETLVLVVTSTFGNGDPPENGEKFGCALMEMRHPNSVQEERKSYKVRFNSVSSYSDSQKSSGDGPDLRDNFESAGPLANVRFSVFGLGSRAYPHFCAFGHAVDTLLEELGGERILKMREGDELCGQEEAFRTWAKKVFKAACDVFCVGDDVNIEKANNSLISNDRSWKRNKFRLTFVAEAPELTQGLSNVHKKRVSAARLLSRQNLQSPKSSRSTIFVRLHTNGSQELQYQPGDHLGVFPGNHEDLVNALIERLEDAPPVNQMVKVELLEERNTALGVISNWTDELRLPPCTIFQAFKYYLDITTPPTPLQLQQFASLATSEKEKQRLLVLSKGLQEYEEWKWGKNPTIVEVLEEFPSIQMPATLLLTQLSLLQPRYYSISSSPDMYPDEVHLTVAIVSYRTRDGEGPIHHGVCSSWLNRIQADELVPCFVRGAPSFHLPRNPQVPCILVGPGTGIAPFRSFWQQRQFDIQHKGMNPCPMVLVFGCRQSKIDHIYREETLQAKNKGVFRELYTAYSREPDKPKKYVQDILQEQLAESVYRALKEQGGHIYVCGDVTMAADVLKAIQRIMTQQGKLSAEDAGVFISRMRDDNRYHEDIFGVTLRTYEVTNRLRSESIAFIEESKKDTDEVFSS
PSD95-ERB4, sequence (P78352 whole entry): as the sequence (P78352 whole entry) above
T2 sequence (Q9Z0J4 whole entry): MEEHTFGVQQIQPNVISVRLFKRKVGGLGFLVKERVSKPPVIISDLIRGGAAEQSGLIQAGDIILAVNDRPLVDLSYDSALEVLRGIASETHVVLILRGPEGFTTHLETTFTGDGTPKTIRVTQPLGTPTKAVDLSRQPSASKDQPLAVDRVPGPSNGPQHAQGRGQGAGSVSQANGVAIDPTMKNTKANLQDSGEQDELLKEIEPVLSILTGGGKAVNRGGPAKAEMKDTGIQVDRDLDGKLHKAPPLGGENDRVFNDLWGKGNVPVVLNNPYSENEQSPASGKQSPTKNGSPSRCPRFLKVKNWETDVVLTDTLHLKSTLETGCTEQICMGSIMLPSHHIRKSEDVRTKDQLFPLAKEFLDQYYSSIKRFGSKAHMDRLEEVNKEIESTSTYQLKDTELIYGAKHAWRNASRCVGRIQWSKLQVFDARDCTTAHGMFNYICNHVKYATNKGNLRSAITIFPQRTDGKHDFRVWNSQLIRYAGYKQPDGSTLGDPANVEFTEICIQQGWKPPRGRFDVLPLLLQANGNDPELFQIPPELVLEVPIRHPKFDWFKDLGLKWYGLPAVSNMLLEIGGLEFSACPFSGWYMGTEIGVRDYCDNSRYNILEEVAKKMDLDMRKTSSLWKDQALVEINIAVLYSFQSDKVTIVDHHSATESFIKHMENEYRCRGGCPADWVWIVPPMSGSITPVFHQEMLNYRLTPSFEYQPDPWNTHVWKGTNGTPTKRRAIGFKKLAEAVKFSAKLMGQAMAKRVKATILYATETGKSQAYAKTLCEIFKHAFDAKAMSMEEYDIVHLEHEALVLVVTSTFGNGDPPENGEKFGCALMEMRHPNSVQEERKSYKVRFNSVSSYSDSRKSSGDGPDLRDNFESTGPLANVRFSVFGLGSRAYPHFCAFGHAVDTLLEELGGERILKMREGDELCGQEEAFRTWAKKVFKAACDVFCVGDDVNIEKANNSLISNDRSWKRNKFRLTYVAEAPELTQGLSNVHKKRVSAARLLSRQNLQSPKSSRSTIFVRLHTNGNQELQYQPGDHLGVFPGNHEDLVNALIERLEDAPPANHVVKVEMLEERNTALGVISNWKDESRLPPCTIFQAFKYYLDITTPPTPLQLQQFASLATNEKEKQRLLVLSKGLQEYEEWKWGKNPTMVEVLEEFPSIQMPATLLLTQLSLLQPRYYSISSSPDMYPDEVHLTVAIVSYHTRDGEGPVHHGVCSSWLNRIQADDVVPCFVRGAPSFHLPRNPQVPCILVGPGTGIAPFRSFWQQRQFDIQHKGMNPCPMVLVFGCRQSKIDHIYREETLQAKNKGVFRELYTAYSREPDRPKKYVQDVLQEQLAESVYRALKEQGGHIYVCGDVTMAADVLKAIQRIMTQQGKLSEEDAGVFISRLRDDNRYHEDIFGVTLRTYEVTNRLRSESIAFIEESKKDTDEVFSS
T2 sequence (Q62108 whole entry): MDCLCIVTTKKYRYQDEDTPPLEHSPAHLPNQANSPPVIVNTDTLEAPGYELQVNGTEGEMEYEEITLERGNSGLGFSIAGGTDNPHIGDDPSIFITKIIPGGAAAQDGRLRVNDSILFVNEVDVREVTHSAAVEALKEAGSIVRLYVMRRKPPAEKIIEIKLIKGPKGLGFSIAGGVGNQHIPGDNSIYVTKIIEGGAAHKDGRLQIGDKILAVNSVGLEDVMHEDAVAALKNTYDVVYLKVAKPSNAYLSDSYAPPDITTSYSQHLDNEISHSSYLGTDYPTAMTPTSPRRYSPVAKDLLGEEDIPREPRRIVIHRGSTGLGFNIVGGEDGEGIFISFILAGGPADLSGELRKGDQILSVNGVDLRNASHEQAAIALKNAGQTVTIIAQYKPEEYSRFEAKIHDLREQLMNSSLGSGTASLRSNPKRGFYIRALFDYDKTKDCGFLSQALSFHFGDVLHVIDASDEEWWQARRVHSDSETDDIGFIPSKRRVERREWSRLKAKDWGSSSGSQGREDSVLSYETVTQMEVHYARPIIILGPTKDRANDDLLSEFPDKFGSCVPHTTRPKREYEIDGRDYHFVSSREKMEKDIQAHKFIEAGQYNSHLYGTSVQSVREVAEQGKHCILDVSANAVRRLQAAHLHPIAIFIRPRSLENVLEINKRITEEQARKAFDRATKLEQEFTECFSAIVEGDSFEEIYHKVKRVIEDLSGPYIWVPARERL

As to `CN1CC[C@]23c4c5ccc(O)c4O[C@H]2[C@@H](O)C=C[C@H]3[C@H]1C5` [morphine, reference compound], the “conditioned place preference to morphine, repeated pairings” value in series [1] (morphine 6 or 10 mg/kg i.p. × 4 pairings, FIG. 4C, 4D) is “produced robust conditioned place preference”. Also, the “active versus inactive lever presses in self-administration” value in series [2] (FR1, naïve, sham and neuropathic rats) was “Active lever presses were greater than inactive presses in all groups”. Moreover, in [2] (naïve rats, FIG. 6A), the mechanical thresholds result is “did not alter mechanical thresholds”. Further, in series [3] (naïve rats, morphine 6 mg/kg i.p., FIG. 3A), the “single trial CPP to the drug alone (morphine)” value is “robust single trial CPP”.

As for `O=C(O)c1cc(NCc2cc(Cl)cc(Cl)c2O)ccc1O` [ZL007, reference compound], the “disruption of PSD95-nNOS interactions by the inactive analog” value in series [4] is “does not disrupt PSD95-nNOS interactions”.

Take `Oc1c(Cl)cc(Cl)cc1CNc1ccc2[nH]nnc2c1` [IC87201]: the “motor performance in the rota-rod test” value in [5] is given as “did not impair”. Moreover, the “memory in the novel object recognition test” value in [6] is “did not impair memory”. Besides, in [7], the source memory entry is “failed to impair spatial memory or source memory” and the spatial working memory result is given as “failed to impair spatial memory or source memory”. In addition, the “conditioned place preference to morphine on coadministration” value in series [1] was “conditioned place preference to morphine was no longer observed”. Moreover, the “disruption of unrelated PSD95-ERB4 interactions” value in series [8] was “not unrelated PSD95-ERB4 interactions; also recorded: without disrupting interaction of PSD95 with unrelated proteins”. For the same compound, in series [9], the “NMDA-induced NO formation” value is “inhibit NMDA-induced NO formation” and the “NMDA-stimulated cGMP levels” value was “suppressed NMDA-stimulated cGMP levels”. Besides, in [10], the “pain hypersensitivity / pathological pain” value is listed as “suppress pain hypersensitivity; also recorded: suppresses pathological pain” and the “nociceptive responding / basal nociceptive thresholds without injury” value was “without altering nociceptive responding; also recorded: without altering basal nociceptive thresholds”. For the same compound, the “disruption of PSD95-nNOS interaction / binding” value in series [11] is reported as “disrupt PSD95-nNOS; also recorded: inhibited PSD95-nNOS binding”. Further, in series [12], the “memory in the Morris Water maze” value is “do not impair memory”. Further, the “single trial CPP to the inhibitor alone” value in series [3] is given as “failed to do so”. Moreover, the “single trial morphine-induced CPP on acute co-treatment” value in series [3] (morphine 6 mg/kg i.p.) was “blocked”.

Consider `N=C(N)NCCC[C@H](N)C(=O)O` [L-arginine], for which the “acquisition of CPP to morphine” value in series [13] (NO donor in the central amygdala) is on record as “increased acquisition of CPP to morphine”.

In the case of `COC(=O)[C@@H](N)CCCNC(=N)N[N+](=O)[O-]` [L-NAME], the “L-arginine enhancement of acquisition of CPP to morphine” value in [13] (NOS inhibitor) is recorded as “this enhancement was blocked”.

For `C[C@]12N[C@H](Cc3ccccc31)c1ccccc12` [MK801, reference compound], in series [7], the source memory entry was “eliminated (i.e. did not differ from chance)” and the spatial working memory entry was “unaffected”. Also, in [9], the “NMDA-stimulated cGMP levels” value is on record as “suppressed NMDA-stimulated cGMP levels”. Moreover, in series [13] (rats, MK801 0.1 mg/kg i.p., doses that do not alter chamber preference), the “morphine-induced CPP” value is listed as “blocked”.

Turning to `O=C(O)c1ccc(NCc2cc(Cl)cc(Cl)c2O)cc1O` [ZL006], the “motor performance in the rota-rod test” value in series [5] is “did not impair”. For the same compound, the “memory in the novel object recognition test” value in [6] is given as “did not impair memory”. Besides, in series [7], the source memory entry is “failed to impair spatial memory or source memory” and the spatial working memory result is listed as “failed to impair spatial memory or source memory”. Further, the “conditioned place preference to morphine on coadministration” value in series [1] is “conditioned place preference to morphine was no longer observed”. Moreover, the “disruption of unrelated PSD95-ERB4 interactions” value in series [8] is reported as “not unrelated PSD95-ERB4 interactions; also recorded: without disrupting interaction of PSD95 with unrelated proteins”. Besides, in series [14], the “association of nNOS with PSD95 in ischemic cortices” value is reported as “inhibits the association of nNOS with PSD95 in ischemic cortices”. Besides, the ischemia induced damage result in series [15] is “inhibits ischemia induced damage”. Moreover, in [9], the “NMDA-induced NO formation” value is listed as “inhibit NMDA-induced NO formation” and the “NMDA-stimulated cGMP levels” value is reported as “suppressed NMDA-stimulated cGMP levels”. The “morphine-induced dopamine efflux on co-administration” value in series [16] (ZL006 10 mg/kg i.p. with morphine 6 mg/kg i.p., NAc shell, FIG. 8C) is listed as “blocked the morphine-induced increase in evoked DA in NAc shell; also recorded: suppresses morphine-induced dopamine efflux in nucleus accumbens shell”. The “amount of DA released per stimulus pulse” value in series [16] (ZL006 10 mg/kg i.p., FIG. 7C) is given as “does not affect the amount of DA released per stimulus pulse”. For the same compound, in series [16] (ZL006 10 mg/kg i.p., FIG. 7D), the “amount of DA uptake per stimulus pulse” value is reported as “does not affect the amount of DA uptake per stimulus pulse”. Besides, the “evoked DA response before and 30 min after drug” value in series [16] (ZL006 10 mg/kg i.p., anesthetized rat, FIG. 8B, pilot data, 10 mg/kg) is given as “clear decrease in DA signal within 30 min; also recorded: decrease in DA evoked response”. Moreover, the “evoked dopamine (DA) efflux, drug alone” value in series [16] (medial forebrain bundle stimulation, morphine 6 mg/kg i.p., ZL006 10 mg/kg i.p., FIG. 7A, 7B) is on record as “does not increase dopamine (DA) efflux”. In [10], the “pain hypersensitivity / pathological pain” value was “suppress pain hypersensitivity” and the “nociceptive responding / basal nociceptive thresholds without injury” value is listed as “without altering nociceptive responding”. Moreover, the “disruption of PSD95-nNOS interaction / binding” value in series [11] is recorded as “disrupt PSD95-nNOS; also recorded: inhibited PSD95-nNOS binding”. Also, in series [12], the “memory in the Morris Water maze” value is “do not impair memory”. Moreover, the “single trial CPP to the inhibitor alone” value in [3] is recorded as “failed to do so”. In addition, the “single trial morphine-induced CPP on acute co-treatment” value in [3] (morphine 6 mg/kg i.p.) is on record as “blocked”.
